Data as given in paper PMC12406203 (Journal of Medicinal Chemistry, 2025).

Assays:
[1] = tested on: JAK2(JH1domain-catalytic)
[2] = tested on: TGFBR1
[3] = tested on: SRC
[4] = molecular target: T1, JAK3(JH1domain-catalytic) (Homo sapiens, UniProt P52333); experiment: KINOMEscan; assay type: binding
T1 construct: JAK3(JH1domain-; purchased Eurofins DiscoverX, LLC; host or cells: E. coli (T7 phage) or HEK-293
Method: (§1) The kinase inhibition profile of compounds 94 and 95 was assessed against 103 protein kinases by Eurofins DiscoverX, LLC., using the KINOMEscan assay. Kinase-tagged T7 phage strains were grown in parallel in 24-well blocks in an E. coli host derived from the BL21 strain. E. coli were grown to log-phase and infected with T7 phage from a frozen stock (multiplicity of infection = 0.4) and incubated with shaking at 32 °C until lysis (90–150 min). The lysates were centrifuged (6000g) and filtered (0.2 μm) to remove cell debris. The remaining kinases were produced in HEK-293 cells and subsequently tagged with DNA for qPCR detection. […] The liganded beads were blocked with excess biotin and washed with blocking buffer (SeaBlock (Pierce), 1% BSA, 0.05% Tween 20, 1 mM DTT) to remove unbound ligand and to reduce nonspecific phage binding. […] Test compounds were prepared as 100× stocks in 100% DMSO and directly diluted into the assay. All reactions were performed in polypropylene 384-well plates in a final volume of 0.02 mL. […] The kinase concentration in the eluates was measured by qPCR.
(§2) The compound(s) were screened at the concentration(s) requested, and results for primary screen binding interactions are reported as RA (%), where lower numbers indicate stronger hits in the matrix. RA=(testcompoundsignal−PCsignal/NCsignal−PCsignal)×100

[5] = molecular target: T2, AKT1 (Homo sapiens, UniProt P31749); experiment: KINOMEscan; assay type: binding
T2 construct: purchased Eurofins DiscoverX, LLC; host or cells: E. coli BL21-derived (T7 phage) or HEK-293
Method: as §1, §2

[6] = tested on: RSK2 (Kin.Dom.1-N-terminal)
[7] = tested on: AURKA
[8] = tested on: FGFR2
[9] = molecular target: hBChE (Homo sapiens, UniProt P06276); experiment: biochemical
Method: The inhibitory potencies of the compounds against the ChEs were determined using the method of Ellman. […] The final content of DMSO was always 1% [v/v]. […] The initial velocities in the presence (v i ) and absence (v 0) of the test compounds were calculated. The inhibitory potencies were expressed as the residual activities, according to RA = (v i – b)/(v 0 – b), where b is the blank value using phosphate buffer without ChEs. For IC50 determinations, at least seven different concentrations for each compound were used. The IC50 values were obtained by plotting the residual ChE activities against the applied inhibitor concentrations, with the experimental data fitted to a four-parameter logistic function (GraphPad Prism 10.0).

[10] = tested on: PIK3C2B
[11] = tested on: RAF1
[12] = tested on: hAChE
[13] = tested on: EGFR
[14] = tested on: p38δ
[15] = in vitro; conditions: PAMPA, pH 7.4
[16] = tested on: TIE2
[17] = tested on: RET
[18] = tested on: PIK3CG
[19] = tested on: ACVR1B
[20] = tested on: PBMCs; experiment: Cytokine release from PHA-stimulated PBMCs; assay type: cell-based, human; conditions: for production of pro-inflammatory cytokines IL-8, IL-1β, IL-6, IL-10, and TNF-α: 1, 2.5, and 5 μM, 18 h
Method: Human PBMCs from healthy donors were isolated from heparinized blood by density gradient centrifugation with Ficoll-Paque. The isolated cells were washed twice with PBS, resuspended in RPMI 1640 medium (Sigma-Aldrich, St. Louis, MO, USA) supplemented with 10% heat-inactivated fetal bovine serum (Gibco), 2 mM L-glutamine (Sigma-Aldrich), 100 U/mL penicillin (Sigma-Aldrich), and 100 μg/mL streptomycin (Sigma-Aldrich), and used in the assays.
Peripheral blood mononuclear cells were seeded (500,000 cells/well) in 24-well plates in 500 μL of growth medium and treated with compounds 94, 95, and neflamapimod (1, 2.5, and 5 μM) in the presence or absence of PHA (1 μg/mL) or the corresponding vehicle (0.1% DMSO). Cell-free supernatants were collected after 18 h of incubation (37 °C, 5% CO2) and stored at −80 °C until tested. Cytokine production was determined with BD Cytometric Bead Array human inflammatory cytokines kit (BD Bioscience) on an Attune NxT flow cytometer (Thermo Fisher Scientific, Waltham, MA, USA). Standard curves were generated using recombinant cytokines contained in the kit. The data were analyzed using the FlowJo (Tree Star, Inc., Ashland, OR, USA) and Prism (GraphPad Prism 6.0, GraphPad Software) software.

[21] = tested on: PRKCE
[22] = tested on: PDGFRB
[23] = tested on: KIT(D816V)
[24] = tested on: FLT3
[25] = tested on: ABL1-phosphorylated
[26] = hBChE IC50 ± SEM, two independent experiments, each in triplicate
[27] = in vitro hBChE IC50, IC50 expressed as concentration in ng/mL

hBChE, sequence (P06276 29-602): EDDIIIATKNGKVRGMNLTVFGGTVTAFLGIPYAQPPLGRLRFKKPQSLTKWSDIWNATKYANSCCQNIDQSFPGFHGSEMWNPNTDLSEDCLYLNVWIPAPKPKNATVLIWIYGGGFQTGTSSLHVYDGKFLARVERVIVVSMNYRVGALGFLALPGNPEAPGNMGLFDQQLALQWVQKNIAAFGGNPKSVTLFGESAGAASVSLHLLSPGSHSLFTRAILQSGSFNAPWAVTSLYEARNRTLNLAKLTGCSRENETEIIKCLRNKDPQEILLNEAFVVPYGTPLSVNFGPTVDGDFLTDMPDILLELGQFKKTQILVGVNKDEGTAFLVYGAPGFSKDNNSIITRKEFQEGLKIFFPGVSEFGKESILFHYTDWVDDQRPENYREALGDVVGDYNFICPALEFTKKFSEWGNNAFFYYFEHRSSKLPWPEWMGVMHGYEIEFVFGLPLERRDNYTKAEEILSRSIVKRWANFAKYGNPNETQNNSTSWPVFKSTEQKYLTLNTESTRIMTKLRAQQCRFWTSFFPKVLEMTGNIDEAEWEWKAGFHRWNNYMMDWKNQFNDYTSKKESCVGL
T1 sequence (P52333 822-1111 limits assumed): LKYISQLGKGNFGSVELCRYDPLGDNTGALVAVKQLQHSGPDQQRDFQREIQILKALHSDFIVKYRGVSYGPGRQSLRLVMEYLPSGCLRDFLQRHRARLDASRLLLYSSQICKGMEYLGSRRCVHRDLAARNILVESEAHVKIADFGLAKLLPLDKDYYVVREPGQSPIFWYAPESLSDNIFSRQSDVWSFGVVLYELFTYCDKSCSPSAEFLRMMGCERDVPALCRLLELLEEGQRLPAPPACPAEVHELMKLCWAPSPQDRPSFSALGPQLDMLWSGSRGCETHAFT
T2 sequence (P31749 whole entry): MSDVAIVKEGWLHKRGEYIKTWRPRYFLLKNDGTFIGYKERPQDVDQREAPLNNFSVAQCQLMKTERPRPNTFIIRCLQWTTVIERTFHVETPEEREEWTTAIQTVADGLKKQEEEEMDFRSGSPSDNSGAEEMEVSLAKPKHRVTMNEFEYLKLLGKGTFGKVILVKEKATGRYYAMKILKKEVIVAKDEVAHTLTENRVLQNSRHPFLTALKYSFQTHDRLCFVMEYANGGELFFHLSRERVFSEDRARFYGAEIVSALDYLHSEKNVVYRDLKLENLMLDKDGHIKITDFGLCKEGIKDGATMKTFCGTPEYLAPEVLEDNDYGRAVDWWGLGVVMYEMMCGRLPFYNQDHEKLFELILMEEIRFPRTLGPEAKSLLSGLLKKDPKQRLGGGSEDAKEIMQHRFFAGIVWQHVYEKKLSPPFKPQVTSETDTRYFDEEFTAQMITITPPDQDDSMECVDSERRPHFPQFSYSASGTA

SMILES: CC(C)Cn1ncc2cc(Cc3ccc(F)cc3F)c(C(=O)NCCN(C)C)cc21 [Compound 94, 5-(2,4-Difluorobenzyl)-N-(2-(dimethylamino)ethyl)-1-isobutyl-1H-indazole-6-carboxamide]
- RA @ 1000nM [1]: 98%
- RA @ 10000nM [1]: 100%
- RA @ 1000nM [2]: 100%
- RA @ 10000nM [2]: 100%
- RA @ 1000nM [3]: 100%
- RA @ 10000nM [3]: 94%
- RA @ 1000nM [4]: 100%
- RA @ 10000nM [4]: 100%
- RA @ 1000nM [5]: 100%
- RA @ 10000nM [5]: 75%
- RA @ 1000nM [6]: 86%
- RA @ 10000nM [6]: 65%
- RA @ 1000nM [7]: 96%
- RA @ 10000nM [7]: 93%
- RA @ 1000nM [8]: 95%
- RA @ 10000nM [8]: 100%
- IC50 [9, 26]: 0.652 ± 0.112 µM
- IC50 [9, 27]: 0.651 µM
- RA @ 1000nM [10]: 90%
- RA @ 10000nM [10]: 82%
- RA @ 1000nM [11]: 100%
- RA @ 10000nM [11]: 100%
- RA at 100 µM [12]: 69 ± 4%
- RA @ 1000nM [13]: 98%
- RA @ 10000nM [13]: 69%
- RA @ 1000nM [14]: 97%
- RA @ 10000nM [14]: 100%
- Papp [15]: 104 nm/s
- RA @ 1000nM [16]: 100%
- RA @ 10000nM [16]: 100%
- RA @ 1000nM [17]: 100%
- RA @ 10000nM [17]: 100%
- RA @ 1000nM [18]: 86%
- RA @ 10000nM [18]: 85%
- RA @ 1000nM [19]: 100%
- RA @ 10000nM [19]: 100%
- production of IL-12 [20]: increased, albeit at a low level
- production of pro-inflammatory cytokines IL-8, IL-1β, IL-6, IL-10, and TNF-α [20]: significantly inhibited
- RA @ 1000nM [21]: 80%
- RA @ 10000nM [21]: 80%
- RA @ 1000nM [22]: 100%
- RA @ 10000nM [22]: 97%
- RA @ 1000nM [23]: 94%
- RA @ 10000nM [23]: 100%
- RA @ 1000nM [24]: 100%
- RA @ 10000nM [24]: 90%
- RA @ 1000nM [25]: 79%
- RA @ 10000nM [25]: 53%

SMILES: CN(C)CCNC(=O)c1cc2c(cnn2CC2CCCCC2)cc1Cc1ccc(F)cc1F [Compound 95, 1-(Cyclohexylmethyl)-5-(2,4-difluorobenzyl)-N-(2-(dimethylamino)ethyl)-1H-indazole-6-carboxamide]
- RA @ 1000nM [1]: 100%
- RA @ 10000nM [1]: 100%
- RA @ 1000nM [2]: 100%
- RA @ 10000nM [2]: 100%
- RA @ 1000nM [3]: 100%
- RA @ 10000nM [3]: 93%
- RA @ 1000nM [4]: 100%
- RA @ 10000nM [4]: 100%
- RA @ 1000nM [5]: 100%
- RA @ 10000nM [5]: 100%
- RA @ 1000nM [6]: 94%
- RA @ 10000nM [6]: 94%
- RA @ 1000nM [7]: 95%
- RA @ 10000nM [7]: 93%
- RA @ 1000nM [8]: 100%
- RA @ 10000nM [8]: 100%
- IC50 [9, 26]: 0.772 ± 0.057 µM
- IC50 [9, 27]: 0.77 µM
- RA @ 1000nM [10]: 91%
- RA @ 10000nM [10]: 91%
- RA @ 1000nM [11]: 100%
- RA @ 10000nM [11]: 100%
- RA at 100 µM [12]: 53 ± 1%
- RA @ 1000nM [13]: 100%
- RA @ 10000nM [13]: 100%
- RA @ 1000nM [14]: 100%
- RA @ 10000nM [14]: 100%
- Papp [15]: 132 nm/s
- RA @ 1000nM [16]: 90%
- RA @ 10000nM [16]: 100%
- RA @ 1000nM [17]: 100%
- RA @ 10000nM [17]: 100%
- RA @ 1000nM [18]: 92%
- RA @ 10000nM [18]: 97%
- RA @ 1000nM [19]: 100%
- RA @ 10000nM [19]: 100%
- production of IL-12 [20]: increased, albeit at a low level
- production of pro-inflammatory cytokines IL-8, IL-1β, IL-6, IL-10, and TNF-α [20]: significantly inhibited
- RA @ 1000nM [21]: 79%
- RA @ 10000nM [21]: 76%
- RA @ 1000nM [22]: 100%
- RA @ 10000nM [22]: 96%
- RA @ 1000nM [23]: 96%
- RA @ 10000nM [23]: 94%
- RA @ 1000nM [24]: 100%
- RA @ 10000nM [24]: 100%
- RA @ 1000nM [25]: 81%
- RA @ 10000nM [25]: 85%
